Where two headings read alike, the source gives them in different places.
What was measured:
[1] = molecular target: HDAC8 enzyme; assay: In vitro HDAC assay (BIOMOL fluorescent-based HDAC activity assay), HDAC8; assay type: biochemical, human; conditions: Table 3; read-out: HDAC8 Enzyme Activity IC50
Description: (§1) Expression of GST-HDAC1 or HTGST-HDAC8 was done by infecting SF9 cells (Invitrogen Pte Ltd) with pDEST20-HDAC1 or pFASTBAC-GST-HDAC8 baculovirus at MOI=1 for 48 h. Soluble cell lysate was incubated with pre-equilibrated Glutathione Sepharose 4B beads (Amersham) at 4°C for 2 h. The beads were washed with PBS buffer for 3 times. The GST-HDAC1 protein or GST-HDAC8 protein was eluted by elution buffer containing 50 mM Tris, pH8.0, 150mM NaCl, 1% Triton X-100 and 10mM or 20mM reduced Glutathione. The purified GST-HDAC1 protein or purified GST-HDAC8 protein was dialyzed with HDAC storage buffer containing 10mM Tris, pH7.5, 100mM NaCl and 3mM MgCl2. 20% Glycerol was added to purified GST-HDAC1 protein or purified GST-HDAC8 before storage at -80°C.
(§2) The assay has been carried, out in 96 well format and the BIOMOL fluorescent-based HDAC activity assay has been applied. […] Flur de lys Developer was added and the reaction was incubated for 10 min. Briefly, deacetylation of the substrate sensitizes it to the developer, which then generates a fluorophore (symbol). The fluorophore is excited with 360 nm light and the emitted light (460 nm) is detected on a fluorometric plate reader (Tecan Ultra Microplate detection system, Tecan Group Ltd.).
(§3) The analytical software, Prism 3.0 has been used to generate IC50 from a series of data.

[2] = tested on: Colo205; assay: Cell-based proliferation assay (cyquant), Colo205; parameters: species or system human; conditions: Table 4, 96 h treatment;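 note: Colo205 cells exposed for 96 h to a range of compound concentrations, growth read by CyQUANT, GI50 taken from plotted dose-response curves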
Description: (§4) Human colon cancer cell lines (Colo205 and HCT116), human breast cancer cell lines (MDA-MB435 and MDA-MB231), and human lung cancer cell line (A549) were obtained from ATCC. […] MDA-MB435 cells were cultivated in DMEM containing 2 mM L-Glutamine, 5% FBS. HCT116 cells were cultivated in IMEM containing 2 mM L-Glutamine, 5% FBS. A549 and Colo205 cells were seeded in 96-wells plate at 2000 and 5000 cells per well respectively. MDA-MB435, HCT116, MDA-MB231 cells were seeded in 96-wells plate at 6000 cells per well. The plates were incubated at 37°C, 5% CO2, for 24 h. Cells, were treated with compounds at various concentration for 96 h. Cell growth was then monitored using cyquant cell proliferation assay (Invitrogen Pte Ltd). Dose response curves were plotted to determine GI50 values for the compounds using XL-fist.

[3] = tested on: MDA-MB435; assay: Cell-based proliferation assay (cyquant), MDA-MB435; parameters: species or system human; conditions: Table 4, 96 h treatment;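 note: GI50 taken from dose–response curves over a range of compound concentrations, with cell growth quantified by the CyQUANT proliferation assay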
Description: as §4

[4] = molecular target: HDAC1 enzyme (Homo sapiens, UniProt Q13547); assay: In vitro HDAC assay (BIOMOL fluorescent-based HDAC activity assay), HDAC1; assay type: biochemical; conditions: Table 3; read-out: HDAC1 Enzyme Activity IC50
Sequence of HDAC1 enzyme (Q13547 whole entry): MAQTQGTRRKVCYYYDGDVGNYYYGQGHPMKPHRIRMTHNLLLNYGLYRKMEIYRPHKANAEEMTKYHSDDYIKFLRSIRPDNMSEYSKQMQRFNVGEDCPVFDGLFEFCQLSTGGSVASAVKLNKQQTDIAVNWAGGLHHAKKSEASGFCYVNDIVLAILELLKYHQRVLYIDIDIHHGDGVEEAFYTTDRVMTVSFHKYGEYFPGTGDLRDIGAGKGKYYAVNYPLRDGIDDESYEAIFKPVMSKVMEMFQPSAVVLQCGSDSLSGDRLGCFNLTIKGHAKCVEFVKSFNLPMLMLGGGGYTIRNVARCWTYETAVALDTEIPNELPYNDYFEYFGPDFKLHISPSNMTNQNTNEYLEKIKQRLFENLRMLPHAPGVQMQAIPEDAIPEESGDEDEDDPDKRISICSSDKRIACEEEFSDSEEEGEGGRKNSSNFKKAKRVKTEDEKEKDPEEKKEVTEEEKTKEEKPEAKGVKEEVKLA
Description: as §1, §2, §3

Row | Compound | IC50 [1] [µM] | IC50 [4] [µM] | also measured
1 | COc1cc(-c2nc3cc(/C=C/C(=O)NO)ccc3n2CCCO)ccc1OCc1ccccc1 [Compound 4, N-Hydroxy-3-[2-(4-benzyloxy-3-methoxy-phenyl)-1-(3-hydroxy-propyl)-1H-benzimidazole-5-yl]-acrylamide] | 0.79 | – | GI50 ([2]; Homo sapiens, COLO 205, 96 h): 29.9 µM; GI50 ([3]; Homo sapiens, MDA-MB-435): 25.7 µM
2 | COc1ccc(-c2nc3cc(/C=C/C(=O)NO)ccc3n2CCO)cc1 [Compound 5, N-Hydroxy-3-[1-(2-hydroxy-ethyl)-2-(4-methoxy-phenyl)-1H-benzimidazole-5-yl]-acrylamide] | 0.401 | – | GI50 ([2]; Homo sapiens, COLO 205): > 100 µM
3 | O=C(/C=C/c1ccc2c(c1)nc(CCc1ccccc1)n2CC(O)CO)NO (stereo not drawn) [Compound 8] | 0.454 | 0.286 | –
4 | O=C(/C=C/c1ccc2c(c1)nc(-c1ccncc1)n2CCO)NO [Compound 10, N-Hydroxy-3-[1-(2-hydroxy-ethyl)-2-(4-pyridyl)-1H-benzimidazol-5-yl]-acrylamide] | 0.883 | – | –
5 | O=C(/C=C/c1ccc2c(c1)nc(-c1ccncc1)n2CCCO)NO [Compound 11, N-Hydroxy-3-[1-(3-hydroxy-propyl)-2-(4-pyridyl)-1H-benzimidazol-5-yl]-acrylamide] | 0.161 | – | GI50 ([2]; Homo sapiens, COLO 205): > 100 µM; GI50 ([3]; Homo sapiens, MDA-MB-435): > 100 µM
6 | O=C(/C=C/c1ccc2c(c1)nc(-c1ccccn1)n2CCCO)NO [Compound 13, N-Hydroxy-3-[1-(3-hydroxy-propyl)-2-(2-pyridyl)-1H-benzimidazol-5-yl]-acylamide] | 0.141 | 0.385 | –
7 | COCCCn1c(CCc2ccccc2)nc2cc(/C=C/C(=O)NO)ccc21 [Compound 15] | 0.313 | 0.206 | –
8 | O=C(/C=C/c1ccc2c(c1)nc(CCc1ccccc1)n2CCc1ccccn1)NO [Compound 18] | 0.29 | 0.438 | –
9 | CC(C)Cc1nc2cc(/C=C/C(=O)NO)ccc2n1CCc1ccccn1 [Compound 22] | 0.234 | 1.33 | –
10 | O=C(/C=C/c1ccc2c(c1)nc(CCc1ccccc1)n2CCc1ccccc1)NO [Compound 26, N-Hydroxy-3-(1,2-Diphenethyl-1H-benzimidazol-5-yl]-acylamide] | – | – | GI50 ([2]; Homo sapiens, COLO 205, 96 h): 8.79 µM; GI50 ([3]; Homo sapiens, MDA-MB-435): 6.67 µM
11 | O=C(/C=C/c1ccc2c(c1)nc(COCc1ccccc1)n2CCc1cccnc1)NO [Compound 28] | 0.3 | 0.206 | –
12 | CC(C)Cc1nc2cc(CCC(=O)NO)ccc2n1CCCO [Compound 29, N-Hydroxy-3-[1-(3-Hydroxy-propyl)-2-isobutyl-1H-benzimidazol-5-yl]-propionamide] | 34 | 49.1 | –
13 | O=C(O)CCn1c(CCc2ccccc2)nc2cc(/C=C/C(=O)NO)ccc21 [Compound 32, 3-[5-(2-Hydrocarbamoyl-vinyl)-2-phenethyl-benzimidazol-1-yl]-propionic acid] | 1.89 | 2.21 | –
14 | CC(C)Cc1nc2cc(/C=C/C(=O)NO)ccc2n1Cc1ccccc1 [Compound 34, N-Hydroxy-3-(1-Benzyl-2-isobutyl-1H-benzimidazol-5-yl)-acrylamide] | 0.846 | – | –
15 | CCCn1cnc2cc(/C=C/C(=O)NO)ccc21 [Compound 37, N-Hydroxy-3-(1-propyl-1H-benzimidazol-5-yl)-acrylamide] | – | – | GI50 ([2]; Homo sapiens, COLO 205): 7.82 µM; GI50 ([3]; Homo sapiens, MDA-MB-435): 7.9 µM
16 | CCn1c(CCc2ccccc2)nc2cc(/C=C/C(=O)NO)ccc21 [Compound 38, N-Hydroxy-3-(1-Ethyl-2-phenethyl-1H-benzimidazol-5-yl)-acrylamide] | – | – | GI50 ([2]; Homo sapiens, COLO 205, 96 h): 1.47 µM; GI50 ([3]; Homo sapiens, MDA-MB-435): 1.53 µM
17 | CCn1cnc2cc(/C=C/C(=O)NO)ccc21 [Compound 39, N-Hydroxy-3-(1-Ethyl-1H-benzimidazol-5-yl)-acrylamide] | – | – | GI50 ([2]; Homo sapiens, COLO 205, 96 h): 11.7 µM; GI50 ([3]; Homo sapiens, MDA-MB-435): 12.1 µM
18 | O=C(NO)c1ccc2c(c1)nc(CCc1ccccc1)n2CCCO [Compound 40, 1-(3-Hydroxy-prorpyl)-2-phenethyl-1H-benzimidazol-5-carboxylic acid hydroxyamide] | 0.441 | 3.3 | –
19 | CC(Cc1nc2cc(/C=C/C(=O)NO)ccc2n1CCc1cccnc1)c1ccccc1 (stereo not drawn) [Compound 41] | 0.159 | 0.195 | –
20 | O=C(/C=C/c1ccc2c(c1)ncn2CCc1ccccn1)NO [Compound 42, N-Hydroxy-3-[1-(2-pyridin-2-yl-ethyl)-1H-benzimidazol-5-yl]-acrylamide] | – | – | GI50 ([2]; Homo sapiens, COLO 205): 14.4 µM; GI50 ([3]; Homo sapiens, MDA-MB-435): 15.8 µM
21 | COc1cc(Cn2c(CCc3ccccc3)nc3cc(CCC(=O)NO)ccc32)cc(OC)c1OC [Compound 45] | – | 0.167 | GI50 ([2]; read-out: GI50 (Colo 205)): 2.41 µM; GI50 [3]: 1.9 µM
22 | CC(C)c1nc2cc(/C=C/C(=O)NO)ccc2n1CCCO [Compound 46] | – | 1.67 | –
23 | Cn1c(CCc2ccccc2)nc2cc(/C=C/C(=O)NO)ccc21 [Compound 48, N-Hydroxy-3-(1-methyl-2-phenethyl-1H-benzimidazol-5-yl)-acrylamide] | – | – | GI50 ([2]; Homo sapiens, COLO 205, 96 h): 1.45 µM; GI50 ([3]; Homo sapiens, MDA-MB-435): 1.78 µM
24 | O=C(/C=C/c1ccc2[nH]c(CCc3ccccc3)nc2c1)NO [Compound 50, N-Hydroxy-3-(2-phenethyl-1H-benzimidazol-5-yl)-acrylamide] | – | – | GI50 ([2]; Homo sapiens, COLO 205, 96 h): 4.29 µM; GI50 ([3]; Homo sapiens, MDA-MB-435): 5.19 µM
25 | Cn1c(CCCc2ccccc2)nc2cc(/C=C/C(=O)NO)ccc21 [Compound 52, N-Hydroxy-3-[1-methyl-2-(3-phenyl-propyl)-1H-benzimidazol-5-yl]-acrylamide] | – | – | GI50 ([2]; Homo sapiens, COLO 205): 2.04 µM; GI50 ([3]; Homo sapiens, MDA-MB-435): 3.58 µM
26 | O=C(/C=C/c1ccc2c(c1)nc(CCc1ccccc1)n2CCCn1ccnc1)NO [Compound 56, N-Hydroxy-3-[1-(-3-imidazol-1-yl-propyl)-2-phenethyl-1H-benzimidazol-5-yl]-acrvlamide] | – | 0.158 | –

Row | Compound | IC50 [1] [µM] | IC50 [4] [µM] | also measured
27 | CN(C)CCCCn1c(CCc2ccccc2)nc2cc(/C=C/C(=O)NO)ccc21 [Compound 57, N-Hydroxy-3-[1-(4-dimethylamino-butyl)-2-phenethyl-1H-benzimidazol-5-yl]-acrylamide] | – | – | GI50 ([2]; Homo sapiens, COLO 205, 96 h): 1.11 µM; GI50 ([3]; Homo sapiens, MDA-MB-435): 1.39 µM
28 | Cn1c(CNCc2ccccc2)nc2cc(/C=C/C(=O)NO)ccc21 [Compound 60, N-Hydroxy-3-[2-(benzylamino-methyl)-1-methyl-1H-benzimidazol-5-yl]-acrylamide] | – | – | GI50 ([2]; Homo sapiens, COLO 205): 2.47 µM; GI50 ([3]; Homo sapiens, MDA-MB-435): 3.6 µM
29 | Cn1c(CN(Cc2ccccc2)Cc2ccccc2)nc2cc(/C=C/C(=O)NO)ccc21 [Compound 61] | – | 0.196 | –
30 | COc1ccc(CNCc2nc3cc(/C=C/C(=O)NO)ccc3n2C)cc1 [Compound 62] | – | 0.234 | –
31 | CN(C)CCCn1c(CCc2ccccc2)nc2cc(/C=C/C(=O)NO)ccc21 [Compound 63, N-Hydroxy-3-[1-(3-dimethylamino-propyl)-2-phenethyl-1H-benzimidazol-5-yl]-acrylamide] | – | – | GI50 ([2]; Homo sapiens, COLO 205, 96 h): 2 µM
32 | CCN(CC)CCn1c(CCc2ccccc2)nc2cc(/C=C/C(=O)NO)ccc21 [Compound 66, N-Hydroxy-3-[1-(2-diethylamino-ethyl)-2-phenethyl-1H-benzimidazol-5-yl]-acrylamide] | 0.255 | – | GI50 ([2]; Homo sapiens, COLO 205, 96 h): 0.22 µM
33 | CCn1c(CN(Cc2ccccc2)Cc2ccccc2)nc2cc(/C=C/C(=O)NO)ccc21 [Compound 68] | – | 0.294 | –
34 | Cn1c(CNC(=O)Cc2ccc(F)cc2)nc2cc(/C=C/C(=O)NO)ccc21 [Compound 69] | – | 0.146 | –
35 | CCn1c(CCNC(=O)Cc2ccccc2)nc2cc(/C=C/C(=O)NO)ccc21 [Compound 70] | – | 0.923 | GI50 ([2]; read-out: GI50 (Colo 205)): 2.9 µM
36 | CCn1c(CCNS(=O)(=O)c2ccccc2)nc2cc(/C=C/C(=O)NO)ccc21 [Compound 71] | – | 0.167 | –
37 | CCn1c(CCNC(=O)COc2ccccc2)nc2cc(/C=C/C(=O)NO)ccc21 [Compound 73] | – | 0.56 | –
38 | CCn1c(CCNCc2ccccc2)nc2cc(/C=C/C(=O)NO)ccc21 [Compound 74, N-Hydroxy-3-[2-(2-benzylamino-ethyl)-1-ethyl-1H-benzimidazol-5-yl]-acrylamide] | – | – | GI50 ([2]; Homo sapiens, COLO 205): 2.07 µM
39 | CC(C)(C)Cn1c(CCc2ccccc2)nc2cc(/C=C/C(=O)NO)ccc21 [Compound 75] | – | – | GI50 ([2]; read-out: GI50 (Colo 205)): 2.88 µM
40 | O=C(/C=C/c1ccc2c(c1)nc(CCc1ccccc1)n2C1CCN(Cc2ccccc2)CC1)NO [Compound 76] | – | 1.03 | –
41 | O=C(/C=C/c1ccc2c(c1)nc(CCc1ccccc1)n2CCO)NO [Compound 77] | – | 0.57 | –
42 | O=C(/C=C/c1ccc2c(c1)nc(CCc1ccccc1)n2CCCCCO)NO [Compound 78] | – | > 100 | –
43 | C=CCn1c(CCc2ccccc2)nc2cc(/C=C/C(=O)NO)ccc21 [Compound 79] | – | 1.26 | –
44 | CC(C)OCCCn1c(CCc2ccccc2)nc2cc(/C=C/C(=O)NO)ccc21 [Compound 80] | – | 1.69 | –
45 | CN1CCN(CCCn2c(CCc3ccccc3)nc3cc(/C=C/C(=O)NO)ccc32)CC1 [Compound 81] | – | 1.6 | –
46 | O=C(/C=C/c1ccc2c(c1)nc(CCc1ccccc1)n2CCCN1CCCC1)NO [Compound 82, N-Hydroxy-3-[2-phenethyl-1-(3-pyrrolidin-1-yl-propyl)-1H-benzimidazol-5-yl]-acrylamide] | – | – | GI50 ([2]; Homo sapiens, COLO 205, 96 h): 0.72 µM
47 | CN(C)CC(C)(C)Cn1c(CCCc2ccccc2)nc2cc(/C=C/C(=O)NO)ccc21 [Compound 83] | – | 0.071 | –
48 | CN(C)CC(C)(C)Cn1c(CCc2ccc(F)cc2)nc2cc(/C=C/C(=O)NO)ccc21 [Compound 84] | – | 0.054 | –
49 | CN(C)CC(C)(C)Cn1c(CCc2cccnc2)nc2cc(/C=C/C(=O)NO)ccc21 [Compound 86, N-Hydroxy-3-[1-(3-Dimethylamino-2,2-dimethyl-propyl)-2-(2-pyridin-3-yl-ethyl)-1H-benzimidazol-5-yl]acrylamide] | – | – | GI50 ([2]; Homo sapiens, COLO 205): 13.1 µM
50 | COc1cc(Cn2c(CCc3ccccc3)nc3cc(C4CC4C(=O)NO)ccc32)cc(OC)c1OC (stereo not drawn) [Compound 88, 2-[2-Phenethyl-1-(3,4,5-trimethoxy-benzyl)-1H-benzimidazol-5-yl]-cyclopropanecarboxylic acid hydroxyamide] | – | 0.297 | GI50 ([2]; Homo sapiens, COLO 205, 96 h): 1.26 µM
51 | O=C(/C=C/c1ccc2c(c1)ncn2CCN1CCCCC1)NO [Compound 90] | – | 0.166 | –

Source: patent EP1673349B1, “BENZIMIDAZOLE DERIVATIVES: PREPARATION AND PHARMACEUTICAL APPLICATIONS” (priority 2003, dated 2005)
